Columns and labels:
COX-2 = target: T1, COX-2 (Homo sapiens, UniProt P35354); assay: Human COX-2 enzyme activity (COX Inhibitor Screening Assay, prostaglandin EIA); format: biochemical; parameters: purchased Cayman Chemical; conditions: test compound at 10 μM
T1 sequence (P35354 18-604): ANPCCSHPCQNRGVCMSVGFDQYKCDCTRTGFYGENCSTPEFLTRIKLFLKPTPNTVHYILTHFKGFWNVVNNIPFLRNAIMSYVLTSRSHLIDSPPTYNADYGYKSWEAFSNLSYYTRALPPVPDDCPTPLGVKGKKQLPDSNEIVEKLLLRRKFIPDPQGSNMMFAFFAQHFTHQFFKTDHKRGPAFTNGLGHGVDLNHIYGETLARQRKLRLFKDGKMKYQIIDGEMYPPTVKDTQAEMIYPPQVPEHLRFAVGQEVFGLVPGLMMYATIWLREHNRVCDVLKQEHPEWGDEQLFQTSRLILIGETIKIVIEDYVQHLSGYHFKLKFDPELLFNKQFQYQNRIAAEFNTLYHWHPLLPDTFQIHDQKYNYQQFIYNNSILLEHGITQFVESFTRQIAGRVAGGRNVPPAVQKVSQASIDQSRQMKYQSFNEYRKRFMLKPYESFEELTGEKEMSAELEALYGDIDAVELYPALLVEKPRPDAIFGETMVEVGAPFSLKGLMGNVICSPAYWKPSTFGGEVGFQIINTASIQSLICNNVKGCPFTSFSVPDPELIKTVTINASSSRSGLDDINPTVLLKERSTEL
Procedure: (§1) The human COX-1 and COX-2 enzyme activities and the measurement of the prostaglandin products synthesized were performed using the COX Inhibitor Screening Assay (Cayman Chemical, Ann Arbor, Mich.), which also contained the Prostaglandin Screening EIA Kit, used for prostaglandin quantification). The test compounds were dissolved at 50 times the highest final reaction concentration in DMSO or any other suitable solvent as stock solutions. These stock solutions were then diluted in the same solvent. Eight glass test tubes (13×100 mm) were placed in a 25° C. water bath. To each test tube was added 950 μL of reaction buffer (0.1 M Tris-HCl, pH 8.0, containing 5 mM EDTA, and 2 mM phenol), 10 μL of 100 µM heme solution, and 10 μL (5 units) of either human COX-1 or COX-2 enzyme and the resulting mixture was incubated for 2 minutes. Twenty μL of the solvent was added to one tube (100% initial activity or solvent control) and 20 μL of each dilution of the test compound was added to one tube each. Each tube was vortexed immediately after the addition. The enzyme was incubated with the inhibitor for 20 minutes at 25° C. The enzymatic reaction was then initiated by the addition of 10 μL of freshly prepared 10 mM arachidonic acid (neutralized with KOH), vortexed and then incubated for 2 minutes (or, in some cases as indicated, 30 seconds) at 37° C. The reaction was terminated by the addition of 50 μL of 1 M HCl, vortexed and placed at room temperature. One hundred μL of a saturated stannous chloride solution (50 mg/mL of 0.1 M HCl) was added and the reaction mixture was allowed to stand at room temperature for at least 5 minutes.
(§2) The prostaglandins (PG) produced in the reactions were assayed, after a 2,000-fold dilution, using the Prostaglandin Screening EIA Kit (Cayman Chemical, Ann Arbor, Mich.). The assay contains an antibody with broad specificity for all the prostaglandin families (PGF, PGE, PGD, and thromboxane B-type) synthesized in the COX-1/COX-2 reactions. The synthesized prostaglandin competes with a PG-tagged acetylcholine esterase tracer for binding to the PG antibody. Binding of synthesized PG lowers the colorimetric development of the Ellman's Reagent (computed as %B/B0). The actual amount of synthesized PG was interpolated from a standard curve using known amounts of supplied prostaglandin E2 (PGE2) (PGE2 concentration vs. %B/B0). The data generated were the mean±standard deviation of triplicate wells in the EIA for a single reaction at a given inhibitor concentration.

COX-1 = COX-1 (Homo sapiens, UniProt P23219); assay: Human COX-1 enzyme activity (COX Inhibitor Screening Assay, prostaglandin EIA); format: biochemical; parameters: purchased Cayman Chemical; conditions: test compound at 100 μM
Procedure: as §1
as §2, with “concentration. A plot of % of control (i.e., the solvent control without inhibitor) vs. test compound inhibitor concentration for both isoenzymes was used to determine the IC50 's for COX-1 and COX-2 for that test compound, when IC50's were calculated. The % inhibition for COX-1 and COX-2 enzyme activity by the test compounds at the indicated concentrations are given in Table 1.” for “concentration.”

Sequence of COX-1 (P23219 24-599): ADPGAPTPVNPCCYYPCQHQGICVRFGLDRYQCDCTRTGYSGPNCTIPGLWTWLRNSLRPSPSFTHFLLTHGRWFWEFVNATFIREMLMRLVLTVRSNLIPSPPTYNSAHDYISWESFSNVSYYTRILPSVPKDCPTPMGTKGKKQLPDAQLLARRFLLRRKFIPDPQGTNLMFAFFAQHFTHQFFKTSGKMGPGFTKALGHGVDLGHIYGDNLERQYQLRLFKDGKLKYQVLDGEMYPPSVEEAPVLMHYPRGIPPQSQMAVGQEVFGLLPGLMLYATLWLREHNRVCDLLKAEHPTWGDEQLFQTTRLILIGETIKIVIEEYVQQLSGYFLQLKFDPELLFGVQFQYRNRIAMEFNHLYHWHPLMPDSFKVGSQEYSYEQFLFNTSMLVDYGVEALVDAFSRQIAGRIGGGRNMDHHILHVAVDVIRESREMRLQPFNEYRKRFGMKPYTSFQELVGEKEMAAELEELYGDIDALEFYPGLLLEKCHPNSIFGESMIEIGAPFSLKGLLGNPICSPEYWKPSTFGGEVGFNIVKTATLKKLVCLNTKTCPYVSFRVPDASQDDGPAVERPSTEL

Compound	COX-2 Inhibition (% at 10 μM) (COX-2) [%]	COX-1 Inhibition (% at 100 μM) (COX-1) [%]
CS(=O)(=O)c1ccc(-c2cc3c(cc2CC2CCCCC2)OCO3)cc1 [Example 1e, 1-(6-(Cyclohexylmethyl)(2-H-benzo(3,4-d)1,3-dioxolen-5-yl))-4-(methylsulfonyl) benzene]	100	0
CS(=O)(=O)c1ccc(-c2cc3c(cc2C(=O)c2ccccc2)OCO3)cc1 [Example 3d, 6-(4-(Methylsulfonyl)phenyl)(2H-benzo(d)1,3-dioxolan-5-yl) phenyl ketone]	90	0
CS(=O)(=O)c1ccc(-c2cc3c(cc2Cc2cccnc2)OCO3)cc1 [Example 6c, 4-(Methylsulfonyl)-1-(6-(3-pyridylmethyl)(2H-benzo(3,4-d)1,3-dioxolan-5-yl))benzene]	65	30
CS(=O)(=O)c1ccc(-c2cc3c(cc2CN2CCCCC2=O)OCO3)cc1 [Example 9c]	90	70
CS(=O)(=O)c1ccc(-c2cc3c(cc2C=C2CCCC2)OCO3)cc1 [Example 10a, 4-(6-(Cyclopentylidenemethyl)(2H-benzo(3,4-d)1,3-dioxolan-5-yl))-1-(methylsulfonyl)benzene]	100	30
CS(=O)(=O)c1ccc(-c2cc3c(cc2Cc2cc(F)cc(F)c2)OCO3)cc1 [Example 15c, 5-(1-(3′,5′-Difluorophenyl)methyl)-1,2-methylenedioxy-4-(4-methylsulfonylphenyl)benzene]	90	15
